Counter-ions that a name gives are not always drawn.
Experiments:
Settings in all cases: exposure time: 15 min to 3 h acute
Dugesia japonica [1] = assay: C-shape incidence (% planarians (vehicle-normalised)); higher = higher incidence or increase relative to vehicle control
Method: (§1)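 Adult asexual Dugesia japonica planarians (1 per well, 48-well plate, n=24 over technical triplicates) were exposed acutely (15 min to 3 h) to each compound (0.5% DMSO or water vehicle) and screened on a robotic platform for crawl-out, stickiness, body shape, phototaxis, noxious-heat scrunching and locomotion endpoints. Binary endpoints are incidence rate x100 normalised to in-plate vehicle controls. Continuous endpoints are the median response normalised to the plate vehicle median, as % change or difference. Negative incidences after vehicle subtraction were set to 0.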

Dugesia japonica [2] = assay: loss of phototaxis incidence (% planarians (vehicle-normalised)); higher = higher incidence or increase relative to vehicle control
Method: as §1

Dugesia japonica [3] = assay: speed first 30 s blue light vs vehicle (% change vs vehicle); higher = higher incidence or increase relative to vehicle control
Method: as §1

Dugesia japonica [4] = assay: speed in dark vs vehicle (% change vs vehicle); higher = higher incidence or increase relative to vehicle control
Method: as §1

Dugesia japonica [5] = assay: crawl-out incidence (% planarians); higher = higher incidence or increase relative to vehicle control
Method: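 Adult asexual Dugesia japonica planarians (1 per well, 48-well plate, n=24 over technical triplicates) were exposed acutely (15 min to 3 h) to each compound (0.5% DMSO or water vehicle) and screened on a robotic platform for crawl-out, stickiness, body shape, phototaxis, noxious-heat scrunching and locomotion endpoints. Binary endpoints are incidence rate x100. Continuous endpoints are the median response normalised to the plate vehicle median, as % change or difference. Negative incidences after vehicle subtraction were set to 0.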

Dugesia japonica [6] = assay: hyperkinesis incidence (% planarians (vehicle-normalised)); higher = higher incidence or increase relative to vehicle control
Method: as §1

Dugesia japonica [7] = assay: loss of heat-induced scrunching incidence (% planarians (vehicle-normalised)); higher = higher incidence or increase relative to vehicle control
Method: as §1

Dugesia japonica [8] = assay: any abnormal body shape incidence (% planarians (vehicle-normalised)); higher = higher incidence or increase relative to vehicle control
Method: as §1

Dugesia japonica [9] = assay: corkscrew incidence (% planarians (vehicle-normalised)); higher = higher incidence or increase relative to vehicle control
Method: as §1

Dugesia japonica [10] = assay: anxiety (time in outer well region) vs vehicle (% change vs vehicle); higher = higher incidence or increase relative to vehicle control
Method: as §1

Dugesia japonica [11] = assay: speed second 30 s blue light vs vehicle (% change vs vehicle); higher = higher incidence or increase relative to vehicle control
Method: as §1

Dugesia japonica [12] = assay: stickiness incidence (% planarians (vehicle-normalised)); higher = higher incidence or increase relative to vehicle control
Method: as §1

Dugesia japonica [13] = assay: resting fraction in dark vs vehicle (difference in fraction x100 vs vehicle); higher = higher incidence or increase relative to vehicle control
Method: as §1

Dugesia japonica [14] = assay: contracted body shape incidence (% planarians (vehicle-normalised)); higher = higher incidence or increase relative to vehicle control
Method: as §1

Dugesia japonica [15] = assay: resting fraction in blue light vs vehicle (difference in fraction x100 vs vehicle); higher = higher incidence or increase relative to vehicle control
Method: as §1

Dugesia japonica [16] = assay: noxious heat displacement strength vs vehicle (% change vs vehicle); higher = higher incidence or increase relative to vehicle control
Method: as §1

Dugesia japonica [17] = assay: pharynx extrusion incidence (% planarians (vehicle-normalised)); higher = higher incidence or increase relative to vehicle control
Method: as §1

Dugesia japonica [18] = assay: total locomotor bursts minus vehicle (bursts difference vs vehicle); higher = higher incidence or increase relative to vehicle control
Method: as §1

SMILES | C-shape incidence (Dugesia japonica [1]) | loss of phototaxis incidence (Dugesia japonica [2]) | speed first 30 s blue light (Dugesia japonica [3]) | speed in dark (Dugesia japonica [4]) | crawl-out incidence (Dugesia japonica [5]) | hyperkinesis incidence (Dugesia japonica [6]) | loss of heat-induced scrunching incidence (Dugesia japonica [7]) | any abnormal body shape incidence (Dugesia japonica [8]) | corkscrew incidence (Dugesia japonica [9]) | anxiety (Dugesia japonica [10]) | speed second 30 s blue light (Dugesia japonica [11]) | stickiness incidence (Dugesia japonica [12]) | resting fraction in dark (Dugesia japonica [13]) | contracted body shape incidence (Dugesia japonica [14]) | resting fraction in blue light (Dugesia japonica [15]) | noxious heat displacement strength (Dugesia japonica [16]) | pharynx extrusion incidence (Dugesia japonica [17]) | total locomotor bursts minus vehicle (Dugesia japonica [18])
CNCC[C@H](Oc1cccc2ccccc12)c1cccs1 [s-duloxetine] (31.6 µM) | 34.8 | 47.8 | -45.9 | -18.7 | 4.17 | 39.1 | 65.2 | 73.9 | 0 | -51.2 | -62.7 | ≤ 0 | -4.51 | 4.35 | 7.14 | -61.5 | 26.1 | 61
Cc1ncc2n1-c1ccc(Cl)cc1C(c1ccccc1F)=NC2 [midazolam] (31.6 µM) | 0 | ≤ 0 | -1.82 | 8.87 | 0 | 20.8 | 8.33 | 20.8 | 0 | 3.09 | 23.1 | ≤ 0 | -0.404 | 0 | -0.5 | -27.4 | 0 | -0.5
CN(C)CCCC1(c2ccc(F)cc2)OCc2cc(C#N)ccc21 (stereo not drawn) [citalopram hydrobromide] (316 µM) | 0 | 4.35 | 1.47 | 10.9 | 0 | 13 | 13 | 13 | 0 | 12.2 | 6.83 | 8.7 | 1.16 | 0 | 0.559 | -25.1 | 0 | -3.5
CCCCNc1c(C(=O)OCC)c(C)nc2c1cnn2CC [tracazolate hydrochloride] (3.16 µM) | 0 | 8.33 | -7.17 | -4.2 | 0 | 12.5 | ≤ 0 | 8.33 | 0 | -16.4 | -5.52 | ≤ 0 | 0 | 0 | 0.22 | -6.19 | 0 | 0.5
CN1CC(=O)N=C1NC(=O)Nc1cccc(Cl)c1 [fenobam] (316 µM) | 0 | ≤ 0 | -14.2 | -12.6 | 0 | 0 | ≤ 0 | 0 | 0 | -0.1 | -16.9 | ≤ 0 | 0 | 0 | 0.18 | -32.2 | 0 | 0
O=C1CC2(CCCC2)CC(=O)N1CCCCN1CCN(c2ncccn2)CC1 [buspirone] (31.6 µM) | 0 | 54.2 | -64.5 | -11.1 | 0 | 16.7 | 62.5 | 16.7 | 0 | 7.76 | -74.1 | 16.7 | 3.7 | 0 | 34.3 | -57 | 0 | 3.5
Cc1ncc2n1-c1ccc(Cl)cc1C(c1ccccc1F)=NC2 [midazolam] (17.8 µM) | 0 | ≤ 0 | -3.83 | -14.7 | 0 | 33.3 | ≤ 0 | 33.3 | 0 | -7.26 | -2.19 | ≤ 0 | 1.03 | 0 | -0.5 | -19.1 | 0 | 1
CN(C)CCC[C@@]1(c2ccc(F)cc2)OCc2cc(C#N)ccc21 [escitalopram] (31.6 µM) | 0 | 4.17 | 12.5 | -4.33 | 0 | 0 | 37.5 | 0 | 0 | 3.28 | 4.85 | 8.33 | -4.32 | 4.17 | 0 | -31.5 | 0 | -1.25
CN1CC(=O)N=C1NC(=O)Nc1cccc(Cl)c1 [fenobam] (178 µM) | 0 | ≤ 0 | -12.6 | -3.57 | 0 | 0 | ≤ 0 | 0 | 0 | 3.95 | -18.9 | ≤ 0 | 0.09 | 0 | 0 | -42.2 | 0 | 0.5
CC(NC(C)(C)C)C(=O)c1cccc(Cl)c1 (stereo not drawn) [bupropion] (316 µM) | 0 | ≤ 0 | -72 | 22.5 | 0 | 4.17 | 8.33 | 0 | 0 | 5.33 | -21.6 | 29.2 | 51.6 | 0 | 25.2 | -7.65 | 0 | -7
CNCCC(Oc1ccc(C(F)(F)F)cc1)c1ccccc1 (stereo not drawn) [fluoxetine hydrochloride] (31.6 µM) | 0 | 16.7 | -70.9 | -58.6 | 0 | 0 | 8.33 | 0 | 0 | 10.3 | -66.4 | ≤ 0 | 10.3 | 0 | 6.49 | -49.6 | 0 | 9
O=C(CCCN1CC=C(n2c(=O)[nH]c3ccccc32)CC1)c1ccc(F)cc1 [droperidol] (100 µM) | 4.35 | 60.9 | -94.2 | -79.8 | 4.17 | 0 | 73.9 | 100 | 0 | -37 | -96.2 | 13 | 74.8 | 100 | 93.1 | -26.6 | 0 | 30
O=C(CCCN1CCC(O)(c2ccc(Br)cc2)CC1)c1ccc(F)cc1 [bromperidol] (31.6 µM) | 4.35 | ≤ 0 | -69 | -41 | 8.33 | 69.6 | 52.2 | 73.9 | 21.7 | 20.6 | -63.1 | ≤ 0 | 43.3 | 30.4 | 37.3 | -36.2 | 0 | 0.5
Cc1cc2c(s1)Nc1ccccc1N=C2N1CCN(C)CC1 [olanzapine] (31.6 µM) | 4.17 | 17.4 | -93.9 | -71.9 | 4.17 | 62.5 | 75 | 75 | 16.7 | 24.7 | -89.9 | 16.7 | 78.3 |  | 77.7 | -52.3 | 0 | 6
Cc1cc2c(s1)Nc1ccccc1N=C2N1CCN(C)CC1 [olanzapine] (10 µM) | 4.17 | 4.17 | -85.6 | -68 | 0 | 58.3 | 58.3 | 58.3 |  | -12.4 | -80.9 | ≤ 0 | 72.3 | 0 | 63.5 | -28.1 | 0 | 20
